Assay results: patent publication US11352330B2, “Phenoxymethyl derivatives” (Hoffmann-La Roche Inc., priority 2015, dated 2022)

Each compound was assayed against human ATX (Homo sapiens (Human), UniProt Q13822) (assay: Human ATX enzyme inhibition assay (fluorescence quenching, MR121 substrate)). Details: human His-tagged ATX 30 nM, MR121 substrate 1 μM, 30° C.
Type: biochemical
Protocol: Human ATX Enzyme Inhibition Assay
ATX inhibition was measured by a fluorescence quenching assay using a specifically labeled substrate analogue (MR121 substrate). To obtain this MR121 substrate, BOC and TBS protected 6-amino-hexanoic acid (R)-3-({2-[3-(2-{2-[2-(2-amino-ethoxy)-ethoxy]-ethoxy}-ethoxy)-propionylamino]-ethoxy}-hydroxy-phosphoryloxy)-2-hydroxy-propyl ester (Ferguson et al., Org Lett 2006, 8 (10), 2023) was labeled with MR121 fluorophore (CAS 185308-24-1, 1-(3-carboxypropyl)-11-ethyl-1,2,3,4,8,9,10,11-octahydro-dipyrido[3,2-b:2′,3′-i]phenoxazin-13-ium) on the free amine of the ethanolamine side and then, after deprotection, subsequently with tryptophan on the side of the aminohexanoic acid.
Assay working solutions were made as follows:
Assay buffer (50 mM Tris-HCl, 140 mM NaCl, 5 mM KCl, 1 mM CaCl2, 1 mM MgCl2, 0.01% Triton-X-100, pH 8.0;
ATX solution: ATX (human His-tagged) stock solution (1.08 mg/mL in 20 mM bicine, pH 8.5, 0.15 M NaCl, 10% glycerol, 0.3% CHAPS, 0.02% NaN3), diluted to 1.4-2.5× final concentration in assay buffer;
MR121 substrate solution: MR121 substrate stock solution (800 μM MR121 substrate in DMSO), diluted to 2-5× final concentration in assay buffer.
Test compounds (10 mM stock in DMSO, 8 μL) were obtained in 384 well sample plates (Corning Costar #3655) and diluted with 8 μL DMSO. Row-wise serial dilutions were made by transferring 8 μL cpd solution to the next row up to row O. The compound and control solutions were mixed five times and 2 μL were transferred to 384 well assay plates (Corning Costar #3702). Then, 15 μL of 41.7 nM ATX solution was added (30 nM final concentration), mixed five times and then incubated for 15 minutes at 30° C. 10 μL of MR121 substrate solution was added (1 μM final concentration), mixed 30 times and then incubated for 15 minutes at 30° C.
`CCOc1ccc(F)c(-c2cc(Cl)c(C)cc2OCc2n[nH]c(=O)n2C)c1` [Example B55] showed an IC50 of 9 nM. `Cc1cc(OCc2n[nH]c3nc(OCC(O)CO)ncc23)c(C(C)(C)C)cc1Cl` (centres unmarked) [Example D34, 3-[[3-[(2-tert-Butyl-4-chloro-5-methylphenoxy)methyl]-1H-pyrazolo[3,4-d]pyrimidin-6-yl]oxy]propane-1,2-diol] gave an IC50 of 2 nM. With `Cn1c(COc2cc(Cl)c(C#N)cc2-c2ccccc2F)n[nH]c1=O` [Example B84] the IC50 was 19 nM. With `Cc1cc(OCc2n[nH]c(=O)n2C)c(-c2cc(C(=O)N(C)C)ccc2F)cc1Cl` [Example B38] the IC50 was 8 nM. With `CC(C)c1cc(C#N)ccc1OCc1n[nH]c(=O)n1C` [Example A11] the IC50 was 15 nM. `Cc1cc(OCc2n[nH]c3cccnc23)c(-c2cccc(C(=O)N(C)C)c2)cc1Cl` [Example D24] was tested, and the IC50 was 99 nM. Work on `Cc1cc(OCc2n[nH]c(=O)n2C(C)C)c(C(C)(C)C)cc1C#N` [Example A26, 5-tert-Butyl-2-methyl-4-[(5-oxo-4-propan-2-yl-1H-1,2,4-triazol-3-yl)methoxy]benzonitrile] yielded an IC50 of 12 nM. `Cc1cc(OCc2n[nH]c(=O)n2C)c(-c2cccc(Cl)n2)cc1Cl` [Example B19] gave an IC50 of 65 nM. `COCCNC(=O)c1cccc(-c2cc(Cl)c(C)cc2OCc2n[nH]c3ncccc23)c1` [Example D16] gave an IC50 of 18 nM. Compound `Cc1cc(OCc2n[nH]c3ncccc23)c(C(C)(C)C)cc1S(C)(=O)=O` [Example D9] has an IC50 of 215 nM. Compound `Cc1cc(OCc2n[nH]c(=O)n2C)c(-c2cc(C(=O)N3CCOCC3)ccc2F)cc1Cl` [Example B40] has an IC50 of 15 nM. `Cc1cc(OCc2n[nH]c3nc(N(C)CC(O)CO)ncc23)c(C(C)(C)C)cc1Cl` (centres unmarked) [Example D27] showed an IC50 of 8 nM. Work on `Cn1c(COc2cc(Cl)c(C#N)cc2-c2cc(F)ccc2F)n[nH]c1=O` [Example B94] yielded an IC50 of 5 nM. With `Cc1cc(OCc2n[nH]c(=O)n2C)c(-c2cc(OC(C)C)ccc2F)cc1Cl` [Example B57] the IC50 was 11 nM. With `COc1ccc(C(F)(F)F)cc1-c1cc(Cl)c(C)cc1OCc1n[nH]c(=O)n1C` [Example B59] the IC50 was 25 nM. `Cc1cc(OCc2n[nH]c3ncccc23)c(-c2cc(C(=O)N3CCOCC3)ccc2F)cc1Cl` [Example D22] showed an IC50 of 10 nM. `Cc1cc(OCc2n[nH]c(=O)n2C)c(-c2ccccc2)cc1Cl` [Example B1, 3-[(4-Chloro-5-methyl-2-phenylphenoxy)methyl]-4-methyl-1H-1,2,4-triazol-5-one] was tested, and the IC50 was 3 nM. For `Cc1cc(OCc2n[nH]c(=O)n2C)c(-c2cc(OCC(=O)N(C)C)ccc2F)cc1Cl` [Example B75], the IC50 was 10 nM. `Cc1cc(OCc2n[nH]c(=O)n2C)c(-c2cccnc2Cl)cc1Cl` [Example B18] was tested, and the IC50 was 52 nM. Work on `Cc1cc(OCc2cc[nH]n2)c(C(C)(C)C)cc1Cl` [Example F1, 3-((2-tert-Butyl-4-chloro-5-methylphenoxy)methyl)-1H-pyrazole] yielded an IC50 of 27 nM. `Cc1cc(OCc2cc(C(=O)N(C)C)[nH]n2)c(C(C)(C)C)cc1Cl` [Example F5, 3-((2-(tert-Butyl)-4-chloro-5-methylphenoxy)methyl)-N,N-dimethyl-1H-pyrazole-5-carboxamide] was tested, and the IC50 was 15 nM. In the case of `Cc1cc(OCc2n[nH]c(=O)n2C)c(-c2cc(C(=O)N(C)Cc3ccccn3)ccc2F)cc1Cl` [Example B71], the IC50 is reported as 9 nM. Work on `CC(=O)N1CCc2c(COc3cc(C)c(Cl)cc3C(C)(C)C)n[nH]c2C1` [Example E5, 1-(3-((2-tert-Butyl-4-chloro-5-methylphenoxy)methyl)-4,5-dihydro-1H-pyrazolo[3,4-c]pyridin-6(7H)-yl)ethanone] yielded an IC50 of 17 nM. Work on `Cc1cc(OCc2ccc(=O)[nH]n2)c(C2CCC2)cc1Cl` [Example C5, 3-[(4-chloro-2-cyclobutyl-5-methylphenoxy)methyl]-1H-pyridazin-6-one] yielded an IC50 of 1 nM. `Cc1cc(OCc2n[nH]c(=O)n2C)c(-c2cc(C(N)=O)ccc2OC(F)(F)F)cc1Cl` [Example B52] was tested, and the IC50 was 12 nM. `COc1ncccc1-c1cc(Cl)c(C)cc1OCc1ccc(=O)[nH]n1` [Example C10] was tested, and the IC50 was 32 nM. `Cc1cc(OCc2n[nH]c(=O)n2C)c(-c2cncc(C(N)=O)c2)cc1Cl` [Example B20] showed an IC50 of 913 nM. `Cc1cc(C(C)(C)C)c(OCc2n[nH]c3ncccc23)cc1C#N` [Example D48] gave an IC50 of 32 nM. `COc1ncccc1-c1cc(Cl)c(C)cc1OCc1n[nH]c2cnccc12` [Example D47] was tested, and the IC50 was 11 nM. With `Cc1cc(OCc2n[nH]c(=O)n2C)c(-c2cc(OCC3CCOCC3)ccc2F)cc1Cl` [Example B72] the IC50 was 10 nM. `COCCNC(=O)c1cccc(-c2cc(Cl)c(C)cc2OCc2n[nH]c(=O)n2C)c1` [Example B17] showed an IC50 of 16 nM. Work on `Cc1cc(OCc2ccc(=O)[nH]n2)c(C(C)C)cc1Cl` [Example C1, 3-[(4-Chloro-5-methyl-2-propan-2-ylphenoxy)methyl]-1H-pyridazin-6-one] yielded an IC50 of 19 nM. Work on `COCC(=O)NCc1ccc(F)c(-c2cc(Cl)c(C)cc2OCc2n[nH]c(=O)n2C)c1` [Example B83] yielded an IC50 of 8 nM. Work on `Cc1cc(OCc2ccc(=O)[nH]n2)c(C2CCOCC2)cc1Cl` [Example C7, 3-[[4-chloro-5-methyl-2-(oxan-4-yl)phenoxy]methyl]-1H-pyridazin-6-one] yielded an IC50 of 22 nM. In the case of `COCCN(C)C(=O)c1ccc(F)c(-c2cc(Cl)c(C)cc2OCc2n[nH]c3ncccc23)c1` [Example D40], the IC50 is reported as 6 nM. With `Cn1c(COc2ccc(N3CCOCC3)cc2C(C)(C)C)n[nH]c1=O` [Example A8] the IC50 was 1600 nM. Work on `Cc1cc(OCc2n[nH]c3nc(NCCO)ncc23)c(C(C)(C)C)cc1C#N` [Example D35] yielded an IC50 of 9 nM. Work on `CC(=O)N1CCc2[nH]nc(COc3cc(C)c(Cl)cc3C(C)(C)C)c2C1` [Example E2, 1-(3-((2-tert-Butyl-4-chloro-5-methylphenoxy)methyl)-6,7-dihydro-1H-pyrazolo[4,3-c]pyridin-5(4H)-yl)ethanone] yielded an IC50 of 41300 nM. For `COc1ccc(C(C)C)cc1-c1cc(Cl)c(C)cc1OCc1n[nH]c(=O)n1C` [Example B60], the IC50 was 11 nM. Work on `Cc1cc(OCc2n[nH]c(=O)n2C)c(-c2ncco2)cc1Cl` [Example B29, 3-[[4-Chloro-5-methyl-2-(1,3-oxazol-2-yl)phenoxy]methyl]-4-methyl-1H-1,2,4-triazol-5-one] yielded an IC50 of 78 nM. Work on `Cc1cc(OCc2n[nH]c3nc(N4CC(O)C4)ncc23)c(C(C)(C)C)cc1C#N` [Example D32, 5-tert-Butyl-4-[[6-(3-hydroxyazetidin-1-yl)-1H-pyrazolo[3,4-d]pyrimidin-3-yl]methoxy]-2-methylbenzonitrile] yielded an IC50 of 8 nM. Compound `CC(C)(C)c1cc(Cl)c(F)cc1OCc1n[nH]c2cccnc12` [Example D25] has an IC50 of 18 nM. `Cc1cc(C(C)(C)C)c(OCc2n[nH]c(=O)n2C)cc1C#N` [Example A17] gave an IC50 of 35 nM. With `Cn1c(COc2ccc(C#N)cc2-c2ccccc2)n[nH]c1=O` [Example B16] the IC50 was 25 nM. In the case of `Cc1cc(OCc2n[nH]c(=O)n2C)c(-c2cc(OC3CC3)ccc2F)cc1Cl` [Example B92], the IC50 is reported as 1 nM. Work on `Cn1c(COc2cc(Cl)c(C#N)cc2-c2cc(C(=O)N3CCOCC3)ccc2F)n[nH]c1=O` [Example B61] yielded an IC50 of 10 nM. `Cc1cc(OCc2ccc(=O)[nH]n2)c(-c2cccnc2O)cc1Cl` [Example C11] was tested, and the IC50 was 5980 nM. With `COCCN(C)C(=O)c1ccc(F)c(-c2cc(Cl)c(C)cc2OCc2n[nH]c(=O)n2C)c1` [Example B73] the IC50 was 9 nM. Compound `Cc1cc(OCc2n[nH]c(=O)n2C)c(C2CCCCC2)cc1Cl` [Example A20] has an IC50 of 8 nM. Compound `COc1ncccc1-c1cc(Cl)c(C)cc1OCc1n[nH]c2c1CCNC2` [Example E7, 3-((4-Chloro-2-(2-methoxypyridin-3-yl)-5-methylphenoxy)methyl)-4,5,6,7-tetrahydro-1H-pyrazolo[3,4-c]pyridine] has an IC50 of 202 nM. Work on `Cn1c(COc2cc(C#N)c(Cl)cc2C(C)(C)C)n[nH]c1=O` [Example A34, 4-tert-Butyl-2-chloro-5-[(4-methyl-5-oxo-1H-1,2,4-triazol-3-yl)methoxy]benzonitrile] yielded an IC50 of 28 nM. Compound `Cc1cc(OCc2n[nH]c3ncccc23)c(-c2cc(C(=O)N3CCN(C)C(=O)C3)ccc2F)cc1Cl` [Example D39] has an IC50 of 8 nM. `Cc1cc(OCc2n[nH]c(=O)n2C)c(-c2cc(CN3CCOC3=O)ccc2F)cc1Cl` [Example B82] gave an IC50 of 8 nM. `Cc1cc(OCc2n[nH]c3c2CN(C(=O)OC(C)(C)C)CC3)c(C(C)(C)C)cc1Cl` [Example E1, tert-Butyl 3-((2-tert-butyl-4-chloro-5-methylphenoxy)methyl)-6,7-dihydro-1H-pyrazolo[4,3-c]pyridine-5(4H)-carboxylate] gave an IC50 of 746 nM. Compound `Cc1cc(OCc2n[nH]c(=O)n2C)c(-c2cc(C(=O)N(C)C)ccc2C)cc1Cl` [Example B51, 3-[5-Chloro-4-methyl-2-[(4-methyl-5-oxo-1H-1,2,4-triazol-3-yl)methoxy]phenyl]-N,N,4-trimethylbenzamide] has an IC50 of 17 nM. For `Cn1c(COc2cc(F)c(Cl)cc2C(C)(C)C)n[nH]c1=O` [Example A2], the IC50 was 10 nM.
